From US20130085105A1, “Transdermal Administration Of Peptides” (The Provost, Fellows and Scholars of the College of Holy …, priority 2010, published 2013)

Columns and labels:
[1] = Partition coefficients n-octanol/deionized water and n-octanol/PBS; format: physicochemical; details: 24 hours
Procedure: The partition coefficients for all somatostatin-fatty acid salts in either n-octanol/deionized water or n-octanol/PBS (pH 7.4) were determined. The partition coefficient is the concentration of Compound A or Compound B in the n-octanol phase divided by the concentration in the aqueous or PBS phase.
An accurately weighed sample of each salt was placed into 4 ml HPLC vials sealed with caps containing pierceable silicone septa and dissolved in 2 ml n-octanol. Two ml of either deionized water or PBS were added to each sample; the vials were vortexed vigorously and incubated at 37° C. with agitation for 24 hours in a shaker-incubator at 400 rpm.
Following incubation, two samples were withdrawn from each vial. Once the layers had fully partitioned, a syringe was used to draw a sample of the aqueous phase or the n-octanol phase. Samples from each phase were diluted appropriately with deionized or methanol prior to HPLC analysis.

[2] = Prediction of permeability coefficient Kp and human steady-state plasma level
Description: A further approach to estimating human plasma levels following transdermal administration was outlined by Howes et al. (ATLA, 24:81-106, 1996) and was based on a mass balance approach whereby the input and output quantities of drug are considered equal. Rewriting “input=output” for transdermal systems gives:
A×Kp×Cappl=CL×Cp Eqn. 10.6
where A is the area of application, Kp is the permeability coefficient of the drug through the skin, Cappl is the applied concentration, CL is the plasma clearance and Cp is the steady-state plasma concentration of the drug. Rearranging the equation to estimate Cp gives: […]
A number of methods for determining Kp based on the lipophilicity and molecular weight of the drug in question are available. Potts and Guy (Pharm. Res., 9:663-669, 1992) found the following relationship:
Another method of calculating Kp which makes use of in vitro data is described by Hewitt et al. (In vitro cutaneous disposition of a topical diclofenac lotion in human skin: Effect of a multidose regimen, in Percutaneous Absorption, Bronaugh, R. L. and Maibach, H. I. (Eds.), Marcel Dekker Inc., New York, 1999):
Kp(cm/h)=absorption(μg)/[area×concentration(μg/cm^3)×time] Eqn. 10.11
Values for Kp were calculated using Eqns. 10.9 and 10.10 using the MW value for Compound B di-oleate (1,767 g/mol) and its previously determined KOW value (340.43). Additionally, Eqn. […]

[3] = In vitro transdermal permeation, diffusion cell, hairless mouse skin; format: in vitro ADME, hairless mice
Description: The abdominal skin from male hairless mice (mice of the HRS strain carrying a mutant Hr gene (hr/hr)) aged 6-8 weeks was cleaned of any subcutaneous fat with blood vessels while maintaining the integrity of the viable epidermis and SC. The excised skin was used immediately after preparation and was not stored prior to use.
A custom made finite dosing diffusion cell (AGB Scientific, Dublin, Ireland, FIG. 1) based upon and modified from the Keshary-Chien type diffusion cell was used for in vitro permeation studies.
Three to five diffusion cells were used in each permeation experiment and monitoring was performed over a 48 hour period. The cells were linked in series to a thermostatically controlled circulation bath set at 35° C. to mimic human skin surface temperature. Each cell was placed on a stir-plate set at a defined stirring rate of 1,000 rpm. The surface area for permeation provided by each cell was 3.14 cm^2.
Data collected from each permeation study included:
1) the average maximum flux obtained in 48 hours (Jmax),
2) the total absorption characterized as the total weight of peptide delivered transdermally into the receiver compartment over a 48 hour period,
3) the lag time to detectable flux which was equivalent to the latest sampling time at which no peptide was detectable by HPLC analysis of the receiver solution, and
4) an equivalent 48-hour steady state flux was determined by obtaining the slope of the best-fit line for a plot of cumulative flux per unit area versus time (described by McDaid, D. M. et al., Int. J. Pharm., 133:71-83, 1996).
Fresh hairless mouse skin samples or fresh or freshly thawed pig skin samples were mounted onto the diffusion cell with the SC topmost and in contact with the donor system. A rubber or plastic ring was placed on top of the skin sample to secure it in position. The combination of the diffusion cell top, the skin and the rubber ring was securely fastened together by means of a threaded cap. A recorded volume of receiver solution was added to the receiver compartment and maintained at 35° C. The receiver solution was 60/40 (v/v) PBS/propylene glycol (pH 7.1). The propylene glycol fraction was used to increase the solubility of the somatostatin-fatty acid salts. Previous work reported by Morgan et al. (J. Pharm. Sci., 87:1213-1218, 1998) has shown that a 50/50 water/propylene glycol receptor solution had no detrimental effect on the barrier integrity of both hairless mouse and porcine skin.
The receiver solution was allowed to equilibrate at 35° C. for 30 minutes. […] A narrow-bore hypodermic needle was used to withdraw 1 ml samples from the receiver compartment via the sampling port; at each sampling time, an equal volume of drug-free receiver solution was immediately added back to the receiver compartment. Samples were analyzed by HPLC.
HPLC determination of peptide content in the receiver solution along with the known surface area of skin used (3.14 cm^2) allowed for calculation of transdermal flux (in units of μg/cm^2/hr) for each time point. Panels 1 and 2 of FIG. 2 show flux […] profiles for the myristate, octanoate, decanoate, linoleate, nonanote, acetate and laurate […]
Once lead candidate somatostatin-fatty acid salts had been selected on the basis of in vitro permeation in a DMSO solution, the effect of different solvents and penetration enhancers on permeation was assessed. The concentration of the donor solution corresponded to 5 mg/ml free base peptide for all experiments and all donor solutions were equilibrated at 37° C. for one hour prior to use. These experiments were carried out using hairless mouse skin and pigskin barriers.

[4] = n-octanol/deionized water, 37° C.
[5] = donor 55% EtOH 40% Water 5% Cineole, 5 mg/ml free base peptide
[6] = donor 55/45 (v/v) EtOH/H2O, approx. 5 mg/ml free base peptide
[7] = donor DMSO, approx. 5 mg/ml free base peptide (4.9 mg/ml Compound A oleate, 5.2 mg/ml Compound A acetate)
[8] = donor DMSO, approx. 5 mg/ml free base peptide (4.9 mg/ml Compound A oleate, 5.2 mg/ml Compound A acetate), 48 hr

## [4-(2-hydroxyethyl)]-1-piperazinylacetyl-D-Phe-c(Cys-Tyr-D-Trp-Lys-Abu-Cys)-Thr-NH2 [Compound B di-oleate]
[1]; n-octanol/PBS pH 7.4, 37° C.
  Log KOPBS: −1.398
  O/PBS Coefficient (KOPBS): 0.04
[1]; [4]
  Log KOW: 2.532
  O/W Coefficient (KOW): 340.43
[2]; Eqn. 10.11 from in vitro absorption across pig epidermis, optimized donor vehicle
  Kp Value Obtained: 0.0003476 cm/h
[2]; predicted for human, Eqn. 10.8 with Kp of Eqn. 10.11, area 20 cm^2, 5 mg/cm^3 applied
  steady-state plasma level (Cp): 1.6998 ng/mL
[3]; 55/40/5 ethanol/water/cineole vs 55/45 ethanol/water
  increase in total peptide flux over 48 hours due to cineole: 19.26%
[3]; [5]
  Jmax: 39.838 μg/cm^2/hr
  Jss: 24.075 μg/cm^2/hr
  Lag Time: 1 h
  Total Absorption: 3,279.62 μg/48 hr
[3]; [6]
  Jmax: 32.902 μg/cm^2/hr
  Jss: 20.264 μg/cm^2/hr
  Lag Time: 1 h
  Total Absorption: 2,750.01 μg/48 hr
[3]; [7]
  Lag Time: 1 h
  Total Absorption: 814.86 μg/48 hr
[3]; [8]
  Jmax: 21.407 μg/cm^2/hr
  Jss: 5.158 μg/cm^2/hr
[3]; vs myristate, octanoate, decanoate, linoleate, nonanoate, acetate, laurate salts of Compound A and acetate of Compound B
  flux profile in DMSO compared with other salts: far exceeded
